Source: patent US12378261B2, “One-step, fast, 18F-19F isotopic exchange radiolabeling of difluoro-dioxaborinins and use of such compounds in treatment” (CORNELL UNIVERSITY, priority 2018, dated 2025)

Experiments:
[1] = 19F NMR solvolytic stability of difluoro-dioxaborinins in water/DMSO; type: physicochemical; settings: for Fold increase in stability (90% → 10% H2O): 10% water/DMSO vs 90% water/DMSO; for times more resistant to solvolysis than DK-1: 50 M H2O
Method: Radioactive TLC and […]/^19F NMR studies were used to determine the solvolytic stability of difluoro-dioxaborinins.
(§1) Some difluoro-dioxaborinins are insoluble in water; therefore, solvolytic studies on these compounds were determined in 10% H2O/90% DMSO (5.55 M H2O, deionized). To relate the effect of water concentration to solvolysis, solvolytic studies on all water-soluble difluoro-dioxaborinins (DK-1, DK-2, DK-3, DK-6 and DK-15) were performed twice: once in 10% H2O/90% DMSO (5.55 M H2O) (FIG. 2A), and again in 90% H2O/10% DMSO (50 M H2O) (FIG. 2B). Studies performed in 50 M H2O reflect physiologically appropriate conditions, and allow comparison to literature aryl/alkyl trifluoroborate and dipyrromethene solvolytic stability measurements.^11, 14 Characterization in solutions with reduced water content, 5.55 M H2O, allows comparison of solvolytic rate constants to those of less-soluble difluoro-dioxaborinins. Difluorodioxaborinins solvolysis is not observed in pure (100%) DMSO.
The coefficient of determination (R^2) in all ^19F NMR solvolysis data closely follows single, 2 parameter exponential decay regression (f=a*exp(−k*x), R2 >0.99 in 88% of experiments).

[2] = Optical properties (absorbance, fluorescence emission, quantum yield); type: physicochemical; settings: for Quantum yield: Methanol
[3] = system: sentinel (popliteal) lymph node; experiment: Sentinel lymph node fluorescence imaging (IVIS) and histology in mouse; type: in vivo
Method: FIGS. 3A-F: Sentinel lymph node imaging using [^18F]-6F-Cur-BF2 according to the working examples. […] Distal lymph nodes (lumbar, iliac lymph nodes^30) are not observed. […] A 200 μCi dose of [^18F]-6F-Cur-BF2 and Magnevist (MRI contrast agent) were injected into the right rear paw of […]. The injection site (bottom arrow) and sentinel lymph node (popliteal, upper arrows) are visible at 5 min. FIGS. 3D-3F show popliteal (sentinel) lymph node imaging 2 hours post injection into the back paw with a Pre-Clinical IVIS. Optical/Computed Tomography In Vivo Imaging System (Excitation filter centered at 430 nm and emission filter centered at 520 nm. Exposure time=1 s). […] White arrows in FIGS. 3D-3F indicate the lymph nodes.
FIG. 5 provides the histology of the collected lymph node from the mouse in FIG. 4A. The mouse lymph node was collected at 2 hours post injection into the right, rear footpad. The collected lymph node was frozen with OCT Gel and cut with a thickness of […]. The slice was, imaged with fluorescence microscope at the channel of 6F-Cur-BF2.
Applicant attempted sentinel lymph node imaging with [^18F]-6FCur-BF2 by fluorescence with 430 nm excitation and 520 nm emission filters. […] The collected lymph node is confirmed in histology.

[4] = Solubility in water (50 M H2O); type: physicochemical; settings: 50 M H2O (90% H2O/10% DMSO)
Method: as §1
Solvolysis is promoted by extending difluorodioxaborinin π-conjugation using moderately electron poor or electron-neutral substituents (DK-13 and DK-14). To evaluate the effect of extending the difluoro-dioxaborinin 4,5,6 π-system on solvolysis, compounds that bear extended π-conjugation through the difluoro-dioxaborinin moiety (positions 4, 5, and 6) were synthesized. ^19F NMR solvolytic measurements were performed only in 5.55 M H2O, as DK-13 and DK-14 are insoluble in 50 M H2O.

A549 = experiment: Inhibition of cell proliferation (IC50, MTS); type: cell-based
Method: (§2) As shown in FIGS. 11A-11E, cell viability as a function of Curcumin-BF2 concentration was evaluated for each of the cell lines in Example 5, showing the compounds of the present technology are effective in inhibiting cancer cell proliferation.

HCT116 = experiment: Inhibition of cell proliferation (IC50, MTS); type: cell-based
Method: as §2

HeLa = experiment: Inhibition of cell proliferation (IC50, MTS); type: cell-based
Method: as §2

MCF-7 = experiment: Inhibition of cell proliferation (IC50, MTS); type: cell-based
Method: as §2

MDA-MB-231 = experiment: Inhibition of cell proliferation (IC50, MTS); type: cell-based
Method: as §2

sentinel nodes = settings: non-targeted fluorescent contrasts, literature; cited from earlier work

| fold slower solvolysis (more stable) than DK-1 ([1]; 5.55 M H2O) | Abs [2] [nm] | Em [2] [nm] | Extinction Coefficient [2] | Stokes Shift [2] [nm] | Quantum yield [2] [%] | solubility in water [4] | Fold increase in stability (90% → 10% H2O) [1] | Structure (SMILES) | further results |
| --- | --- | --- | --- | --- | --- | --- | --- | --- | --- |
|  | 279 | 305 | 9,180 cm^−1M^−1 | 26 |  | water-soluble | ~2.8 | CC1=CC(C)=[O+][B-](F)(F)O1 [DK-1] | solvolysis rate constant, k ([1]; 50 M H2O (90% water, 10% DMSO)): 0.254 ± 0.002 h⁻¹; solvolysis in absence of water ([1]; 100% DMSO): not observed; fraction decomposed ([1]; […] (one fluoride-18 half-life), from rate constant at 50 M H2O): 37% |
|  | 303 | 307 | 12,200 cm^−1M^−1 | 4 |  | water-soluble | 3.2 | CC1=[O+][B-](F)(F)OC(C)=C1C [DK-2] | times more resistant to solvolysis than DK-1 [1]: 6.2 |
|  | 303 | 306 | 12,000 cm^−1M^−1 | 3 |  | water-soluble | 3.5 | CCC1=C(C)O[B-](F)(F)[O+]=C1C [DK-3] | times more resistant to solvolysis than DK-1 [1]: 5.6 |
|  | 301 | 307 | 12,600 cm^−1M^−1 | 6 |  | water-soluble | 4.7 | CCOC(=O)CCC1=C(C)O[B-](F)(F)[O+]=C1C [DK-6] | times more resistant to solvolysis than DK-1 [1]: 1.9 |
| 1.4 | 363 | 413 | 38,000 cm^−1M^−1 | 50 | 11.2 | insoluble |  | F[B-]1(F)OC(c2ccccc2)=CC(c2ccccc2)=[O+]1 [DK-13] | times more rapid solvolysis than DK-2 ([1]; 5.55 M H2O): 5.0 |
|  | 325 | 328 | 19,800 cm^−1M^−1 | 3 |  | insoluble |  | CC1=CC(c2ccccc2)=[O+][B-](F)(F)O1 [DK-14] | fold more rapid solvolysis than DK-1 ([1]; 5.55 M H2O): 1.7 |
|  | 303 | 307 | 12,000 cm^−1M^−1 | 4 |  | water-soluble | 5.0 | CC1=C2CCCCC2=[O+][B-](F)(F)O1 [DK-15] | times more resistant to solvolysis than DK-1 [1]: 2.5 |
| 15 | 400 | 439 | 62,000 cm^−1M^−1 | 39 | 67.3 | insoluble |  | COc1ccc(C2=CC(c3ccc(C(C)(C)C)cc3)=[O+][B-](F)(F)O2)cc1 [DK-16] | fold slower solvolysis than DK-2 ([1]; 5.55 M H2O): 2.2 |
| 16 | 408 | 438 | 63,600 cm^−1M^−1 | 30 | 65.8 | insoluble |  | COc1ccc(C2=CC(c3ccc(OC)cc3)=[O+][B-](F)(F)O2)cc1 [DK-17] | fold slower solvolysis than DK-2 ([1]; 5.55 M H2O): 2.3 |

Second part, the molecule before the results:

| Structure (SMILES) | fold slower solvolysis (more stable) than DK-1 ([1]; 5.55 M H2O) | Abs [2] [nm] | Em [2] [nm] | Extinction Coefficient [2] | Stokes Shift [2] [nm] | Quantum yield [2] [%] | solubility in water [4] | Fold increase in stability (90% → 10% H2O) [1] | further results |
| --- | --- | --- | --- | --- | --- | --- | --- | --- | --- |
| COc1cc(/C=C/C2=CC(/C=C/c3ccc(OC(=O)c4c(F)cc(F)cc4F)c(OC)c3)=[O+][B-](F)(F)O2)ccc1OC(=O)c1c(F)cc(F)cc1F [6F-Cur-BF2] | 1.6 | 430 | 512 | 50,800 cm^−1M^−1 | 82 | 3.0 |  |  | fold more rapid solvolysis than Cur-BF2 ([1]; 5.55 M H2O): 33; fluorescence in collected lymph node (histology) ([3]; mouse lymph node collected 2 hours post injection): observed in the lymph node; sentinel node visualization by fluorescence through the skin ([3]; mouse, 430 nm excitation, 520 nm emission filters, 2 hours post injection): the sentinel node is difficult to visualize through the skin |
| COc1cc(/C=C/C2=CC(/C=C/c3ccc(OC(=O)CCN4C(=O)C=CC4=O)c(OC)c3)=[O+][B-](F)(F)O2)ccc1OC(=O)CCN1C(=O)C=CC1=O [Cur-BF2-2Mal] | 2.1 | 434 | 509 | 54,000 cm^−1M^−1 | 75 | 3.1 |  |  | fold more rapid solvolysis than Cur-BF2 ([1]; 5.55 M H2O): 24 |
| COc1cc(/C=C/C2=CC(/C=C/c3ccc(O)c(OC)c3)=[O+][B-](F)(F)O2)ccc1O [Cur-BF2] |  | 500 | 571 | 73,000 cm^−1M^−1 |  |  | insoluble |  | IC50 (A549; A549, 24 h): 27 ± 3 µM; IC50 (A549; A549, 48 h): 5.5 ± 0.3 µM; IC50 (HCT116; HCT116, 24 h): 3.31 ± 0.04 µM; IC50 (HCT116; HCT116, 48 h): 4.3 ± 0.2 µM; IC50 (HeLa; 24 h): 5.4 ± 0.4 µM; IC50 (HeLa; 48 h): 4.2 ± 0.2 µM; IC50 (MCF-7; MCF-7, 24 h): 10 ± 4 µM; IC50 (MCF-7; MCF-7, 48 h): 4.8 ± 0.2 µM; IC50 (MDA-MB-231; MDA-MB-231, 24 h): 11 ± 1 µM; IC50 (MDA-MB-231; MDA-MB-231, 48 h): 6 ± 1 µM |
| COc1cc(/C=C/C(=O)CC(=O)/C=C/c2ccc(O)c(OC)c2)ccc1O [Curcumin, reference compound] |  | 434 | 535 | 56,500 cm^−1M^−1 | 101 | 2.4 |  |  | IC50 (A549; Homo sapiens, A549, 24 h): 50 ± 4 µM; IC50 (A549; Homo sapiens, A549, 48 h): 25 ± 1 µM; IC50 (HCT116; Homo sapiens, HCT-116, HCT116, 24 h): 27 ± 5 µM; IC50 (HCT116; Homo sapiens, HCT-116, HCT116, 48 h): 16 ± 2 µM; IC50 (HeLa; Homo sapiens, 24 h): 16 ± 3 µM; IC50 (HeLa; Homo sapiens, 48 h): 19 ± 6 µM; IC50 (MCF-7; Homo sapiens, MCF7, MCF-7, 24 h): 27 ± 8 µM; IC50 (MCF-7; Homo sapiens, MCF7, MCF-7, 48 h): 35 ± 3 µM; IC50 (MDA-MB-231; Homo sapiens, MDA-MB-231, 24 h): 32 ± 13 µM; IC50 (MDA-MB-231; Homo sapiens, MDA-MB-231, 48 h): 26 ± 6 µM |
| CC1(C)C(/C=C/C=C/C=C/C=C2\N(CCCCS(=O)(=O)O)c3ccc4ccccc4c3C2(C)C)=[N+](CCCCS(=O)(=O)[O-])c2ccc3ccccc3c21 [indocyanine green] |  |  |  |  |  |  |  |  | behaviour in sentinel node mapping (sentinel nodes): travel through sentinel nodes to delineate multiple non-sentinel nodes |
| CCN(CC)c1ccc(C(=C2C=CC(=[N+](CC)CC)C=C2)c2cc(S(=O)(=O)[O-])ccc2S(=O)(=O)[O-])cc1.[Na+] [lymphazurin, isosulfan blue] |  |  |  |  |  |  |  |  | behaviour in sentinel node mapping (sentinel nodes): travel through sentinel nodes to delineate multiple non-sentinel nodes |
